Test: Stability of each ingredient according to time and temperature (HPLC content)
Assay type: physicochemical
Set-up: content of ingredient: unit not given here
Conditions: for stability of ingredient content over time and temperature: summary in words of Table 3, FIGS. 6 to 8
Description: In order to compare the catechin contents of the fermented green tea extract, each sample was analyzed by WATERS 2695 HPLC manufactured by Alliance, and analyzed using an ODS (C18) column. […] Each numerical value in Table 1 indicates the wt % of the corresponding ingredient, based on the total weight ratio of the extract.

[1] = Week 16: 45° C./Normal pressure
[2] = Week 16: Room temperature/Normal pressure
[3] = Week 25: 45° C./Normal pressure
[4] = Week 25: Refrigerated/Normal pressure
[5] = Week 25: Room temperature/Normal pressure

content of ingredient (Day 1 (Feb. 20, 2017))	content of ingredient (Week 1 (Feb. 27, 2017))	content of ingredient (Week 2 (Mar. 6, 2017))	content of ingredient [1]	content of ingredient [2]	content of ingredient [3]	content of ingredient [4]	content of ingredient [5]	Compound	stability of ingredient content over time and temperature
2.22	2.28	2.27	2.38	2.36	2.21	2.15	2.02	epicatechin 3-O-gallate [ECG]	
7.48	7.70	7.53	7.72	7.79	6.61	7.19	6.19	(−)-epigallocatechin gallate [EGCG]	rapidly decreased after a predetermined period
7.80	7.95	7.79	8.74	8.72	7.62	7.93	7.27	O=C(O[C@@H]1Cc2c(O)cc(O)cc2O[C@H]1c1cc(O)c(O)c(O)c1)c1cc(O)c(O)c(O)c1 [GCG, (−)-gallocatechin gallate]	maintained relatively stably
2.12	2.12	2.19	2.50	2.84	2.28	2.61	2.06	Oc1cc(O)c2c(c1)O[C@H](c1cc(O)c(O)c(O)c1)[C@H](O)C2 [EGC, epigallocatechin]	
